# Calls of active or inactive are those of the source.
# Key:
# [1] = biological target: T1, Hexokinase HKDC1 (Homo sapiens, UniProt Q2TB90); test: HKDC1 hexokinase inhibitors, dose response, biochemical, W721R variant (AID 504729); assay type: functional
# T1 sequence (Q2TB90 whole entry): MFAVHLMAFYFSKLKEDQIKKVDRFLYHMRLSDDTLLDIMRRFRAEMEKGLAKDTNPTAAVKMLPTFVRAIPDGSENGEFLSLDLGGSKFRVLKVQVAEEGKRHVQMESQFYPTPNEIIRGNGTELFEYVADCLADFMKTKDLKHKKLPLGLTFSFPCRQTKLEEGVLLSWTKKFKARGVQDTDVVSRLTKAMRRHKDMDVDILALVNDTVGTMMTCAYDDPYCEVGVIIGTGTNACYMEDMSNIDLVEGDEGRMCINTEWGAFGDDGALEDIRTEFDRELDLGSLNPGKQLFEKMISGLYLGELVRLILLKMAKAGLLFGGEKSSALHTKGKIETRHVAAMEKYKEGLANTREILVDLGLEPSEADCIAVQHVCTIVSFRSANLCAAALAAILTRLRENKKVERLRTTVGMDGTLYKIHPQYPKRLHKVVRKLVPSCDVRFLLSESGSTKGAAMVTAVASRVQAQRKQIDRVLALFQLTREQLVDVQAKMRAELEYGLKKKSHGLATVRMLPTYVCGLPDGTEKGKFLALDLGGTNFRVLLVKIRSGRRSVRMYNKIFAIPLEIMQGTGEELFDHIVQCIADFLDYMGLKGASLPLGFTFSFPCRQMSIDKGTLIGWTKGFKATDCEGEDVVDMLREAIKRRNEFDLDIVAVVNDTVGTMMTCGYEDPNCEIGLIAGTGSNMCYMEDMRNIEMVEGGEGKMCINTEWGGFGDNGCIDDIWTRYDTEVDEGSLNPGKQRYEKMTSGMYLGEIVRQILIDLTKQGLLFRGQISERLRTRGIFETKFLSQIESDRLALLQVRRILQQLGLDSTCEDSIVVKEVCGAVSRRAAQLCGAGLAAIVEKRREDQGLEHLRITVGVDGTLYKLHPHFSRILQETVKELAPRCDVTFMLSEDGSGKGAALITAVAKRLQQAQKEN
# [2] = biological target: T2, RNA-binding protein pos-1 (Caenorhabditis elegans, UniProt G5EF15); test: inhibitors of POS-1/mex-3 RNA binding, dose response, biochemical, fluorescence polarization (AID 1964);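 also: purified POS-1 fused to maltose binding protein made in E. coli; potency of compounds blocking POS-1 binding to fluorescent RNA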
# T2 sequence (G5EF15 whole entry): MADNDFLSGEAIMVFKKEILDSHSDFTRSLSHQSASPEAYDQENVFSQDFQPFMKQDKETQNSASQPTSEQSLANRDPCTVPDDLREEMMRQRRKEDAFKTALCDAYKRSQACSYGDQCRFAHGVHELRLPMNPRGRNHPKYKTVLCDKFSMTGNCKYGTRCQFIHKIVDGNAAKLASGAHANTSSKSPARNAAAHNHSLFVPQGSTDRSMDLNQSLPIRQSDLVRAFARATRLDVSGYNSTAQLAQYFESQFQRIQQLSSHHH
# [3] = biological target: T3, Zinc finger protein mex-5 (Caenorhabditis elegans, UniProt Q9XUB2); test: MEX-5/TCR-2 RNA interaction inhibitors, dose response, biochemical, C. elegans, fluorescence polarization (AID 1960)
# T3 sequence (Q9XUB2 whole entry): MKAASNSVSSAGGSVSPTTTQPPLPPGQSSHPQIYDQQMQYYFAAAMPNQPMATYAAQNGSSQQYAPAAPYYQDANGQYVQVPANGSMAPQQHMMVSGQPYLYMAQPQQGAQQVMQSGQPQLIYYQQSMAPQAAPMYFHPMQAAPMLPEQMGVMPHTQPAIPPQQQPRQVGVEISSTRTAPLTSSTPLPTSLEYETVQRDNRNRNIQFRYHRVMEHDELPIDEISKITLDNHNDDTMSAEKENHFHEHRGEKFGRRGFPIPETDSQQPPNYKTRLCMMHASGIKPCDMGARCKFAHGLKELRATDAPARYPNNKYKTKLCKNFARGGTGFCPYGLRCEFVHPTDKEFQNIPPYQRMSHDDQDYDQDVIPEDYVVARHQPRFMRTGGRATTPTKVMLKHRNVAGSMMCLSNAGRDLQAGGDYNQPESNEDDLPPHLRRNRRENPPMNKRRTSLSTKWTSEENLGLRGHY
# [4] = biological target: T4, Replicative DNA helicase DnaB (Mycobacterium tuberculosis, UniProt P9WMR3); test: DnaB intein splicing inhibitors, dose response, biochemical, cell-free fluorescence (AID 449749); assay type: functional
# T4 sequence (P9WMR3 whole entry): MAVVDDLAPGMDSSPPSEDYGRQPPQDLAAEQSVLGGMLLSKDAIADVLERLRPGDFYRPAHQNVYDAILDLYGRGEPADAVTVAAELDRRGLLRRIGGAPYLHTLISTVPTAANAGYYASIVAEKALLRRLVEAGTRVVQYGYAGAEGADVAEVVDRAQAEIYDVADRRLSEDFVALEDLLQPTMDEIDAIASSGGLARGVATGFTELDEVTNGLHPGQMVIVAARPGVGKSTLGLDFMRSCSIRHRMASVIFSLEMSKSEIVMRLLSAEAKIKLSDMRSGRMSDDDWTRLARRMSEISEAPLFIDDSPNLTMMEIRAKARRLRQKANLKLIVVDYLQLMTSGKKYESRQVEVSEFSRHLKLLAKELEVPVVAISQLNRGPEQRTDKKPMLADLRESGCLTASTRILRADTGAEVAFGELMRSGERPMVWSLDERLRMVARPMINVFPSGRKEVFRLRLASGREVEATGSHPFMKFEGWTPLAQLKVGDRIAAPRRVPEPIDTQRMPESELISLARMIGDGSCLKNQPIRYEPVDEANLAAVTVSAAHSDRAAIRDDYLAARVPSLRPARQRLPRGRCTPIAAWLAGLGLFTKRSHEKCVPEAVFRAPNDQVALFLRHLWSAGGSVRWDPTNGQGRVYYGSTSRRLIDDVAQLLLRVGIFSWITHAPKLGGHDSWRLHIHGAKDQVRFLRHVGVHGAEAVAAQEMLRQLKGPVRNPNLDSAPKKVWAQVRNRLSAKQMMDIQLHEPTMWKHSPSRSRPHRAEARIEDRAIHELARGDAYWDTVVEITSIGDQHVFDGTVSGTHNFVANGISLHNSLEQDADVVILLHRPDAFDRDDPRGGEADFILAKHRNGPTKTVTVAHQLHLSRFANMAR
SMILES,IC50 [1],EC50 [2],EC50 [3],AC50 [4]
Cc1cc(C)c(S(=O)(=O)Nc2cc(SCC(=O)O)c(O)c3ccccc23)cc1C,4.72 µM (active),> 300 µM (not active),38.6 µM (active),1.1 µM (active)
O=C(O)c1cc(N2N=C(C(F)(F)F)/C(=C/C=C/c3ccco3)C2=O)ccc1Cl,5.66 µM (active),–,–,–
O=C(/C=C/c1ccco1)NC(=S)Nc1cccc(C(=O)O)c1,–,8.57 µM (active),8.73 µM (active),–
CNCc1ccccc1Sc1ccc(O)c(O)c1,–,34.8 µM (active),22.6 µM (inconclusive),> 120 µM (inactive)
